Data on 31 compounds can be found in patent US8378104B2 (OSI Pharmaceuticals, LLC, priority 2010, dated 2013).

The structures appear in SMILES notation. pIC50: −log10 of the molar value. Where a name gives a salt, the structure may show the parent alone.

In this assay the target is T1, TAK1-TAB1 fusion protein (Homo sapiens, UniProt O43318).
T1 construct: purchased Carna
T1 sequence (O43318 with tags, fused parts or gaps limits assumed): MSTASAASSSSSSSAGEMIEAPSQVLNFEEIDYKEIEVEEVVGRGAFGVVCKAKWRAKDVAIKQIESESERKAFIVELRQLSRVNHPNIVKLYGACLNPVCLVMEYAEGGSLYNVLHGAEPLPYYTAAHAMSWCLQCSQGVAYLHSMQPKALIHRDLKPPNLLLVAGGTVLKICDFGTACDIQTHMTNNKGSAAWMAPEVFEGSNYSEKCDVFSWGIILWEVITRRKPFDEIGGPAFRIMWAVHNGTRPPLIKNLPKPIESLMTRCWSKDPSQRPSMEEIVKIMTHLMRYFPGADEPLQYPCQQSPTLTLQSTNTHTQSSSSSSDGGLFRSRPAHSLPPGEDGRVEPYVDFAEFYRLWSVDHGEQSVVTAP
The assay is described as follows: TAK1 biochemical assay (AlphaScreen, GST-MAP2K7 substrate). The note with it: TAK1-TAB1 fusion protein, GST-MAP2K7 substrate; read-out: mean TAK1 IC50 (Col. A). (In general: Bead proximity is the source of the signal in Alpha formats.)
As usually defined, the pIC50 is the negative decadic logarithm of the IC50, by convention in mol/L. `Cn1cc2c(-c3cc4c(-c5cnn([C@H]6CC[C@H](O)CC6)c5)cnc(N)c4o3)csc2cc1=O` [Example 259, 3-{7-amino-4-[1-(trans-4-hydroxycyclohexyl)-1H-pyrazol-4-yl]furo[2,3-c]pyridin-2-yl}-5-methylthieno[3,2-c]pyridin-6(5H)-one]: the pIC50 was less than 5.00. The figure for `N#Cc1ccsc1-c1cnc(N)c2oc(-c3csc4cnccc34)cc12` [Example 383, 2-(7-amino-2-thieno[2,3-c]pyridin-3-yl-furo[2,3-c]pyridin-4-yl)-thiophene-3-carbonitrile] is less than 5.00; for `Nc1ncc(-c2cnn(C3CCNCC3)c2)c2cc(C3CCNCC3)oc12` [Example 54, 2-(piperidin-4-yl)-4-[1-(piperidin-4-yl)-1H-pyrazol-4-yl]furo[2,3-c]pyridin-7-amine] it is less than 5.00. The figure for `CCOc1cccc(-c2cc3c(-c4cnn(C5CCN(C(C)=O)CC5)c4)cnc(N)c3o2)c1` [Example 162, 1-(4-{4-[7-amino-2-(3-ethoxyphenyl)furo[2,3-c]pyridin-4-yl]-1H-pyrazol-1-yl}piperidin-1-yl)ethanone] is 5.00 to 6.00; for `CNc1ncc(-c2cnn(C3CCN(C(C)=O)CC3)c2)c2cc(-c3cccc4cnsc34)oc12` [Example 279, 1-(4-{4-[2-(1,2-benzothiazol-7-yl)-7-(methylamino)furo[2,3-c]pyridin-4-yl]-1H-pyrazol-1-yl}piperidin-1-yl)ethanone trifluoroacetate] it is 6.00 to 7.00; for `Nc1ncc(-c2cnn(C3CCNCC3)c2)c2cc(-c3cccnc3)oc12` [Example 26, 4-[1-(piperidin-4-yl)-1H-pyrazol-4-yl]-2-(yridine-3-yl)furo[2,3-c]pyridine-7-amine] it is 5.00 to 6.00. In the case of `CSc1nc2cccc(-c3cc4c(-c5cnn([C@H]6CC[C@H](O)CC6)c5)cnc(N)c4o3)c2s1` [Example 353, trans-4-(4-{7-amino-2-[2-(methylsulfanyl)-1,3-benzothiazol-7-yl]furo[2,3-c]pyridin-4-yl}-1H-pyrazol-1-yl)cyclohexanol Trifluoroacetate (Salt)] it was 5.00 to 6.00.

On to `CC(=O)N1CCC(n2cc(-c3cnc(N)c4oc(-c5ccc(N)c(C)c5)cc34)cn2)CC1` [Example 140, 1-(4-{4-[7-amino-2-(4-amino-3-methylphenyl)furo[2,3-c]pyridin-4-yl]-1H-pyrazol-1-yl}piperidin-1-yl)ethanone], for which the pIC50 was 5.00 to 6.00. The figure for `Nc1ncc(-c2cnn(C3CCNCC3)c2)c2cc(-c3cccc4c3oc3ccccc34)oc12` [Example 36, 2-(dibenzo[b,d]furan-4-yl)-4-[1-(piperidin-4-yl)-1H-pyrazol-4-yl]furo[2,3-c]pyridine-7-amine] is 6.00 to 7.00; for `Nc1ncc(-c2cnn(C3CCNCC3)c2)c2cc(-c3cc(C(F)(F)F)cc(C(F)(F)F)c3)oc12` [Example 1, 2-{(3,5-Bis-trifluoromethyl)phenyl}-4-(1-piperidin-4-yl-1H-pyrazol-4-yl)-furo[2,3-c]pyridin-7-ylamine] it is 5.00 to 6.00; for `Nc1ncc(-c2cnn([C@H]3CC[C@H](O)CC3)c2)c2cc(-c3c(-c4ccccc4)sc4cnccc34)oc12` [Example 269, trans-4-{4-[7-amino-2-(2-phenylthieno[2,3-c]pyridin-3-yl)furo[2,3-c]pyridin-4-yl]-1H-pyrazol-1-yl}cyclohexanol trifluoroacetate] it is 5.00 to 6.00. In the case of `O[C@H]1CC[C@H](n2cc(-c3cncc4oc(-c5cccc6ncsc56)cc34)cn2)CC1` it was 6.00 to 7.00. Take `CC(=O)N1CCC(n2cc(-c3cnc(N)c4oc(-c5ccccc5C(N)=O)cc34)cn2)CC1` [Example 172, 2-{4-[1-(1-acetylpiperidin-4-yl)-1H-pyrazol-4-yl]-7-aminofuro[2,3-c]pyridin-2-yl}benzamide]: the pIC50 was 5.00 to 6.00.

On to `COc1ccccc1COc1cccc(-c2cc3c(-c4cnn(C5CCN(C(C)=O)CC5)c4)cnc(N)c3o2)c1` [Example 212, 1-{4-[4-(7-amino-2-{3-[(2-methoxybenzyl)oxy]phenyl}furo[2,3-c]pyridin-4-yl)-1H-pyrazol-1-yl]piperidin-1-yl}ethanone], for which the negative logarithm of the IC50 (pIC50) was less than 5.00. In the case of `CC(=O)N1CCC(n2cc(-c3cnc(N)c4oc(-c5ccc(N6CCCCC6)nc5)cc34)cn2)CC1` [Example 118, 1-[4-(4-{7-amino-2-[6-(piperidin-1-yl)pyridin-3-yl]furo[2,3-c]pyridin-4-yl}-1H-pyrazol-1-yl)piperidin-1-yl]ethanone] it was less than 5.00; in that of `Nc1ncc(-c2cnn(C3CCN(C(=O)CCC4CCCCC4)CC3)c2)c2cc(-c3csc4cnccc34)oc12` [Example 334, 1-{4-[4-(7-amino-2-thieno[2,3-c]pyridin-3-yl-furo[2,3-c]pyridin-4-yl)-pyrazol-1-yl]-piperidin-1-yl}-3-cyclohexyl-propan-1-one], 5.00 to 6.00; in that of `Cc1ccc(-c2cnc(N)c3oc(-c4csc5cnccc45)cc23)s1` [Example 386, 4-(5-methyl-thiophen-2-yl)-2-thieno[2,3-c]pyridin-3-yl-furo[2,3-c]pyridin-7-ylamine], 5.00 to 6.00.

Regarding `Nc1ncc(-c2cnn(C3CCNCC3)c2)c2c(Cl)c(-c3cccc4cnccc34)oc12` [Example 16, 3-chloro-2-(isoquinoolin-5-yl)-4-[1-(piperidin-4-yl)-1H-pyrazol-4-yl]furo[2,3-c]pyridin-7-amine], the negative-log IC50 (pIC50) is 5.00 to 6.00.

Turning to `CC(=O)N1CCC(n2cc(-c3cnc(N)c4oc(-c5c[nH]c6ccccc56)cc34)cn2)CC1` [Example 188, 1-(4-{4-[7-amino-2-(1H-indol-3-yl)furo[2,3-c]pyridin-4-yl]-1H-pyrazol-1-yl}piperidin-1-yl)ethanone], the pIC50 was less than 5.00. In the case of `Nc1ncc(-c2cnn([C@H]3CC[C@H](O)CC3)c2)c2cc(-c3ccc4c(c3)CC(=O)N4)oc12` [Example 405, 5-{7-amino-4-[1-(trans-4-hydroxycyclohexyl)-1H-pyrazol-4-yl]furo[2,3-c]pyridin-2-yl}-1,3-dihydro-2H-indol-2-one] it was 5.00 to 6.00. The figure for `CC(=O)N1CCC(n2cc(-c3cnc(N)c4oc(-c5cnn(Cc6ccncc6)c5)cc34)cn2)CC1` [Example 151, 1-[4-(4-{7-amino-2-[1-(pyridin-4-ylmethyl)-1H-pyrazol-4-yl]furo[2,3-c]pyridin-4-yl}-1H-pyrazol-1-yl)piperidin-1-yl]ethanone] is 5.00 to 6.00; for `Nc1ncc(-c2ccsc2)c2cc(-c3csc4cnccc34)oc12` [Example 391, 2-(thieno[2,3-c]pyridin-3-yl)-4-(thiophen-3-yl)furo[2,3-c]pyridin-7-amine trifluoroacetate] it is 5.00 to 6.00. In the case of `CC(=O)N1CCC(n2cc(-c3cnc(N)c4oc(-c5c(F)ccc6ncsc56)cc34)cn2)CC1` [Example 358, 1-(4-{4-[7-amino-2-(6-fluoro-1,3-benzothiazol-7-yl)furo[2,3-c]pyridin-4-yl]-1H-pyrazol-1-yl}piperidin-1-yl)ethanone bis(trifluoroacetate)] it was 6.00 to 7.00; in that of `Nc1ncc(-c2cnn([C@H]3CC[C@H](O)CC3)c2)c2cc(-c3ccc4c(c3)C(=O)NC4)oc12` [Example 403, 6-{7-amino-4-[1-(trans-4-hydroxycyclohexyl)-1H-pyrazol-4-yl]furo[2,3-c]pyridin-2-yl}-2,3-dihydro-1H-isoindol-1-one], 6.00 to 7.00; in that of `CC(=O)N1CCC(n2cc(-c3cnc(N)c4oc(-c5cccc(CN)c5)cc34)cn2)CC1` [Example 178, 1-[4-(4-{7-amino-2-[3-(aminomethyl)phenyl]furo[2,3-c]pyridin-4-yl}-1H-pyrazol-1-yl)piperidin-1-yl]ethanone], 6.00 to 7.00. Take `COC(=O)c1cc2cccc(-c3cc4c(-c5cnn(C6CCNCC6)c5)cnc(N)c4o3)c2s1` [Example 48, methyl 7-{7-amino-4-[1-(piperidin-4-yl)-1H-pyrazol-4-yl]furo[2,3-c]pyridine-2-yl}-1-benzothiophene-2-carboxylate]: the negative-log IC50 (pIC50) is 6.00 to 7.00.

Take `CC(=O)N1CCC(n2cc(-c3cnc(N)c4oc(-c5c(C#CC(C)(C)O)sc6cnccc56)cc34)cn2)CC1` [Example 265, 1-[4-(4-{7-amino-2-[2-(3-hydroxy-3-methylbut-1-yn-1-yl)thieno[2,3-c]pyridin-3-yl]furo[2,3-c]pyridin-4-yl}-1H-pyrazol-1-yl)piperidin-1-yl]ethanone trifluoroacetate]: the pIC50 was 6.00 to 7.00. The figure for `Nc1ncc(-c2cnn(C3CCNCC3)c2)c2cc(-c3cc(F)cc(C(F)(F)F)c3)oc12` [Example 7, 2-[3-fluoro-5-(trifluoromethyl)phenyl]-4-[1-(piperidin-4-yl)-1H-pyrazol-4-yl]furo[2,3-c]pyridin-7-amine] is 5.00 to 6.00. In the case of `CC(=O)N1CCC(n2cc(-c3cnc(N)c4oc(-c5ccc(N6CCCC6)nc5)cc34)cn2)CC1` [Example 139, 1-[4-(4-{7-amino-2-[6-(pyrrolidin-1-yl)pyridin-3-yl]furo[2,3-c]pyridin-4-yl}-1H-pyrazol-1-yl)piperidin-1-yl]ethanone], the pIC50 is less than 5.00. In the case of `Cc1ccc(-c2cnc(N)c3oc(-c4csc5cnccc45)cc23)o1` [Example 387, 4-(5-methylfuran-2-yl)-2-(thieno[2,3-c]pyridin-3-yl)furo[2,3-c[pyridin-7-amine trifluoroacetate] it was 5.00 to 6.00; in that of `CCOC(=O)Cn1cc(-c2cnc(N)c3oc(-c4cccc5cnccc45)cc23)cn1` [Example 59, ethyl {4-[7-amino-2-(isoquinolin-5-yl)furo[2,3-c]pyridin-4-yl]-1H-pyrazol-1-yl}acetate], 5.00 to 6.00.
